# Laboratory results taken from patent publication US20120272401A1 (priority 2009, published 2012).
# Tests used:
# [1] = tested on: AtABCG25 promoter (pAtABCG25::GUS reporter); assay: GUS staining of pAtABCG25::GUS transgenic plants after ABA treatment; format: in vivo, Arabidopsis; settings: 10 μM ABA
# Protocol: RNA was extracted from Arabidopsis plants for RT-PCR using the RNeasy Plant Mini Kit (Qiagen). RT-PCR was carried out using AtABCG25_RT-PCR—5′ (5′-[…]-3′ (SEQ ID NO: 8)) and AtABCG25_RT-PCR—3′ (5′-[…]-3′ (SEQ ID NO: 9)) primers with the PrimeScript One Step RT-PCR kit (Takara Bio). The Actin2 transcript as a control was amplified using Actin2RT-F (5′-[…]-3′ (SEQ ID NO: 10)) and Actin2RT-R (5″-[…]-3′ (SEQ ID NO: 11)) primers. GUS staining was carried out according to the standard protocol (Sundaresan, V. et al., 1995, Genes Dev9: 1797-1810). The plants stained with GUS were observed under a SZ61 stereoscopic microscope (Olympus), and digital images were obtained using the DS-L1 CCD digital camera (Nikon). Finer images were photographed using a BX60 upright microscope (Olympus) and a VB-7010 CCD camera (Keyence). For transgenic lines to be examined for GUS expression from the AtABCG25 promoter a 2-kb AtABCG25 promoter region was prepared by amplifying the region using AtABCG25pro_Forward (5′-[…]-3′ (SEQ ID NO: 12)) and AtABCG25pro_Reverse (5′-[…]-3′ (SEQ ID NO: 13)) primers with KOD-plus polymerase (Toyobo), cloning the amplified product into the pENTR/D/TOPO vector (Invitrogen), and integrating the resultant into the GUS-fusion vector pBGGUS (Kubo, M. et al., 2005, Genes Dev 19: 1855-1860).
# [2] = biological target: T1, AtABCG25 protein (Arabidopsis thaliana, UniProt Q84TH5, L179I); format: biochemical; settings: for Promotion of ABA uptake by nucleotide (energy dependence): 4 mM of the indicated nucleotide; for Inhibition of ATP-dependent ABA uptake by nucleotide: 4 mM of the indicated nucleotide in addition to ATP
# T1 construct: Full-length cDNA of the AtABCG25 (Atlg71960) gene was obtained from the RIKEN BioResource Center; made in house; host or cells: Sf9 insect cells (Spodoptera frugiperda), BaculoGold baculovirus system; membrane vesicles
# Protocol: Such activity is measured using the vesicle transport assay method described in the Examples below. […] The candidate of ABA transporter protein is expressed in such cell membrane. The membrane comprises inside-out membrane vesicles in which the inside and the outside are inverted.
# A BaculoGold™ baculovirus expression vector system (BD PharMingen) was used to prepare the recombinant baculovirus. Sf9 insect cells (Spodoptera frugiperda) were infected with the virus and cultured in SF900-SFM medium (Invitrogen) at 27° C. for 72 hours in a shaking incubator. Cells were collected by centrifugation at 1,100×g for 10 minutes and then disrupted by nitrogen cavitation in 150 mM NaCl. 3 mM CaCl2, 2 mM MgCl2, 0.1 mM EGTA, and 10 mM Tris-HCl (pH 7.4). Undisrupted cells, nuclear debris, and mitochondria were pelleted by centrifugation at 2,600×g for 10 minutes. The supernatant was centrifuged at 100,000×g for 30 minutes, and the pellet was resuspended in 70 mM KCl, 7.5 mM MgCl2, and 50 mM MOPS-Tris (pH 7.0). Membrane vesicles were stored by freezing in a deep freezer until use. Concentration of the protein was measured using the BCA protein assay kit (Pierce) with bovine serum albumin as a control. To confirm the production of the AtABCG25 proteins in the Sf9 cells by Western blot analysis, an anti-AtABCG25 antibody was obtained by immunizing a rabbit with a synthetic peptide (Operon Biotechnologies). This synthetic peptide consisted of 3 types of 12 to 14 amino acid residues from the Arabidopsis AtABCG25 protein, designed based on positions 69 to 82 ([…]), positions 132 to 143 ([…]), and positions 328 to 340 ([…]). Membrane proteins were solubilized using 4% SDS and subjected to 10% SDS-PAGE. Proteins were transferred to a polyvinylidene difluoride membrane and probed using a rabbit anti-AtABCG25 antibody and horseradish-peroxidase-conjugated donkey anti-rabbit IgG. Specific immunoreactive proteins were detected by exposure to an autoradiography film using a chemiluminescence detection system (ECL-plus, Amersham Biosciences).
# An experiment of membrane transport was carried out using the rapid filtration technique (Otsuka, M. et al., 2005, Proc. Natl. Acad. Sci., U.S.A., 102: 17923-17928). […] The transport medium was passed through a 0.45-μm nitrocellulose filter (Millipore), and the filter was washed with 6 ml of ice-cooled stop buffer (70 mM KCl, 7.5 mM MgCl2, 50 mM MOPS-Tris, pH 7.0). The radioactivity retained on the filter was determined using a liquid scintillation counter (Tri-Carb2800TRs; PerkinElmer). Membrane vesicles from Sf9 cells containing only the vector were used as the controls.
# [3] = tested on: CC1=CC(=O)CC(C)(C)C1(O)/C=C/C(C)=C\C(=O)O; assay: cells, lysate or membranes named; settings: other: membrane vesicles expressing AtABCG25, ATP-dependent uptake measured for 15 seconds at indicated ABA concentrations; 27.0 °C
# T1 sequence (Q84TH5 whole entry L179I): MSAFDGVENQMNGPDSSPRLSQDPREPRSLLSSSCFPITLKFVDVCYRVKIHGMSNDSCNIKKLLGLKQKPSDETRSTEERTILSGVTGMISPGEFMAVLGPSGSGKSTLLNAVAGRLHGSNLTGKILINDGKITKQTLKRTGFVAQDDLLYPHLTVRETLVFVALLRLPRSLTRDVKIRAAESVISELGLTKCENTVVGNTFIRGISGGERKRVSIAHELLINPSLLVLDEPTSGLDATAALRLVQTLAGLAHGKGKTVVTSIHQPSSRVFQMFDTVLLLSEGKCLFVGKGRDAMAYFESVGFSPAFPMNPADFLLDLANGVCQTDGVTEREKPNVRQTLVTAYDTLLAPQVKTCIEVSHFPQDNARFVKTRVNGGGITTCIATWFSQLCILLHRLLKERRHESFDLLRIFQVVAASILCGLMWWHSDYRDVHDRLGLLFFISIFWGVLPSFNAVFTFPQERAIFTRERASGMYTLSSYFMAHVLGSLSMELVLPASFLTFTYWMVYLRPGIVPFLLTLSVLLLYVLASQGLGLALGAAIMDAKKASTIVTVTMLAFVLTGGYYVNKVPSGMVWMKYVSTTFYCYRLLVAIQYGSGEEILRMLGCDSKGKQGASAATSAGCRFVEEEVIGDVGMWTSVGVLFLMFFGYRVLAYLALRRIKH
molecule,measurement,setting,value
"CC1=CC(=O)CC(C)(C)C1(O)/C=C/C(C)=C\C(=O)O (racemic) [ABA, abscisic acid]",Expression level of the GUS reporter after ABA treatment,[1],increased
same,"ABA uptake in the presence of ATP, full activity (100%)","[2]; at 15 seconds, in the presence of ATP, no competing compound",8.3 μmol/mg protein
"Nc1ncnc2c1ncn2[C@@H]1O[C@H](COP(=O)(O)OP(=O)(O)OP(=O)(O)O)[C@@H](O)[C@H]1O [ATP, adenosine triphosphate]",Promotion of ABA uptake by nucleotide (energy dependence),[2],significantly promoted
[O]=[V]([O-])([O-])[O-] [Vanadate],Inhibition of ATP-dependent ABA uptake by vanadate,[2]; 1 mM vanadate in addition to ATP,inhibited
AtABCG25 protein (Arabidopsis thaliana; L179I),Km,[3],0.23 µM
same,Vmax,[3],6.2 μmol/min/mg protein
Nc1ncnc2c1ncn2[C@@H]1O[C@H](COP(=O)(O)O)[C@@H](O)[C@H]1O [AMP],Promotion of ABA uptake by nucleotide (energy dependence),[2],neither ADP nor AMP promoted
same,Inhibition of ATP-dependent ABA uptake by nucleotide,[2],did not exhibit any inhibitory effect
"CC1=CC(=O)CC(C)(C)C1(O)/C=C/C(C)=C\C(=O)O (single isomer, unassigned; (-)) [(−)ABA]",Cis-inhibition of ATP-dependent ABA uptake (substrate specificity),"[2]; in the presence of ATP and compound, (+)ABA at a 10-fold concentration",not influenced
Nc1ncnc2c1ncn2[C@@H]1O[C@H](COP(=O)(O)OP(=O)(O)O)[C@@H](O)[C@H]1O [ADP],Promotion of ABA uptake by nucleotide (energy dependence),[2],neither ADP nor AMP promoted
same,Inhibition of ATP-dependent ABA uptake by nucleotide,[2],inhibited
